Columns and labels:
[1] = tested on: patients with chronic stable angina; conditions: high-dose administration; cited from earlier work
urinary Hx = experiment: Test Example 1: urinary purine concentrations, hypoxanthine; assay type: in vivo, human; conditions: Week 0 to Week 2, FIG. 5; single administration or combined use, doses not distinguished
Protocol: (§1) Various purines in peripheral blood were measured according to the Reference. Briefly, peripheral blood was collected with EDTA, 500 μL mixed with 500 μL ice cold 8% PCA, immediately vortexed for five seconds, and centrifuged at 12,000×g for 10 minutes at 4° C., and the supernatant was stored at −80° C. The processed sample was then dissolved, with 40 μL of 2M K2CO3 in 6 M KOH added to 650 μL of the solution to simultaneously precipitate the PCA and neutralize the solution. After this solution was centrifuged at 12,000×g for 10 minutes at 4° C., 160 μL of a mobile phase was added to 40 μL of the supernatant and applied to HPLC. The conditions of HPLC were also set according to the Reference. The amounts of purines are expressed in molar quantity contained in 1 L of whole blood.
The purine concentrations were measured by the same method as in (4).
(§2) The following administration test was conducted for 16 Japanese healthy adult males, one subject in Phase I and 15 subjects in Phase II divided into Group A to Group E with 3 subjects each.
(§3) After Phase I, the following contents were administered to three subjects in each group:
(§4) Group A: febuxostat 20 mg twice a day for 14 days;
(§5) Group B: inosine 500 mg of twice a day for 14 days;
(§6) Group C: febuxostat 20 mg and inosine 500 mg twice a day for 14 days;
Group D: febuxostat 20 mg and inosine 1000 mg twice a day for 14 days; and […]

blood X (xanthine) = experiment: Test Example 1: blood purine concentrations by HPLC, xanthine; assay type: in vivo, human; conditions: Week 0 to Week 2
Protocol: as §1
(§7) Coolen E J, Arts I C, Swennen E L, Bast A, Stuart M A, Dagnelie P C. Simultaneous determination of adenosine triphosphate and its metabolites in human whole blood by RP-HPLC and UV-detection. J Chromatogr B Analyt Technol Biomed Life Sci. 2008 Mar. 15; 864(1-2): 43-51.
as §2, §3, §4, §5, §6
(§8) Group D: febuxostat 20 mg and inosine 1000 mg twice a day for 14 days; and
(§9) Group E: febuxostat 30 mg twice a day for 14 days.

blood ATP = experiment: Test Example 1: blood purine concentrations by HPLC, ATP; assay type: in vivo, human; conditions: Week 0 to Week 2
Protocol: as §1, §7, §2, §3, §4, §5, §6, §8, §9

blood Hx (hypoxanthine) = experiment: Test Example 1: blood purine concentrations by HPLC, hypoxanthine; assay type: in vivo, human; conditions: Week 0 to Week 2
Protocol: as §1, §7, §2, §3, §4, §5, §6, §8, §9

urinary X = experiment: Test Example 1: urinary purine concentrations, xanthine; assay type: in vivo, human; conditions: for change in urinary X concentration: Week 0 to Week 2, FIG. 5, single administration or combined use, doses not distinguished
urinary uric acid = experiment: Test Example 1: urinary uric acid concentration/creatinine concentration; assay type: in vivo, human; conditions: Week 0 to Week 2
Protocol: Since the urinary uric acid concentration varies with urine volume, a urinary uric acid amount was evaluated by using a urinary uric acid/creatinine value acquired by dividing by urinary creatinine concentration. The measurement method of the uric acid value was the same as that for the serum uric acid value.
as §2, §3, §4, §5, §6, §8, §9

[2] = tested on: model mouse of amyotrophic lateral sclerosis; conditions: model mouse of ALS; cited from earlier work
serum uric acid = experiment: Test Example 1: serum uric acid value (uricase-peroxidase method); assay type: in vivo, human
Protocol: For a clinical chemistry automatic analyzer, a dry clinical chemistry analysis measuring unit manufactured by ARKRAY, Inc. was used, and the serum uric acid value was measured by using the uricase-peroxidase method.
The following administration test was conducted for 16 Japanese healthy adult males, one subject in Phase I and 15 subjects in Phase II divided into Group A to Group E with 3 subjects each. […]
After Phase I, the following contents were administered to three subjects in each group: […]
as §9

multiple sclerosis = conditions: administration of inosine; cited from earlier work
[3] = tested on: erythrocytes with low ATP; conditions: erythrocytes left at low temperature for 20 to 30 days, inosine added, left to stand for 1 hour; cited from earlier work
Parkinson's disease = conditions: administration of inosine; cited from earlier work
[4] = Group E: febuxostat 60 mg/day alone for 14 days
[5] = Groups A-C: febuxostat 20 mg and/or inosine 500 mg twice a day for 14 days
[6] = Group E: febuxostat 30 mg twice a day for 14 days

Oc1ncnc2[nH]ncc12 [allopurinol]
symptoms of chronic stable angina [1]: suppressed

Cc1nc(-c2ccc(OCC(C)C)c(C#N)c2)sc1C(=O)O [febuxostat]
change in urinary Hx concentration (urinary Hx): moderate rise
change in blood X (xanthine) concentration (blood X (xanthine); [4]): rise
change in blood X (xanthine) concentration (blood X (xanthine); [5]): significantly increased
change in blood ATP concentration (blood ATP; [6]): No certain tendency was observed
change in blood ATP concentration (blood ATP; [5]): not changed
change in blood Hx (hypoxanthine) concentration (blood Hx (hypoxanthine); [4]): slight rise
change in blood Hx (hypoxanthine) concentration (blood Hx (hypoxanthine); [5]): unchanged
maximum concentration of urinary X (urinary X; [6]): 867.7 µM
maximum concentration of urinary X (urinary X; [5]): 556.0 µM
change in urinary X concentration (urinary X): significantly increased
change in urinary uric acid/creatinine (urinary uric acid; [6]): reduced
change in urinary uric acid/creatinine (urinary uric acid; [5]): reduced
disease progression of amyotrophic lateral sclerosis [2]: inhibits disease progression
serum uric acid value, lowest observed (serum uric acid; Phase II Group E: febuxostat 30 mg twice a day (60 mg/day) for 14 days): less than 2 mg/dL
serum uric acid value reduced by (serum uric acid; Phase II Group E: febuxostat 30 mg twice a day for 14 days): 3.93 mg/dL
serum uric acid value reduced by (serum uric acid; Phase II Groups A and C: febuxostat 20 mg alone or with inosine 500 mg, twice a day for 14 days): 2.53 mg/dL
serum uric acid value, not reduced to less than (serum uric acid; Phase II, any of the administration examples of 40 mg/day of febuxostat, 14 days): ≥ 2 mg/dL

OC[C@H]1O[C@@H](n2cnc3c(O)ncnc32)[C@H](O)[C@@H]1O [inosine]
symptoms of multiple sclerosis (multiple sclerosis): alleviates symptoms
ATP in erythrocytes [3]: ATP increased
symptoms of Parkinson's disease (Parkinson's disease): alleviates symptoms
change in urinary Hx concentration (urinary Hx): no rise
change in blood X (xanthine) concentration (blood X (xanthine); [5]): neither Hx nor X changed
change in blood ATP concentration (blood ATP; [5]): not changed
change in blood Hx (hypoxanthine) concentration (blood Hx (hypoxanthine); [5]): neither Hx nor X changed
maximum concentration of urinary X (urinary X; [5]): 61.9 µM
change in urinary X concentration (urinary X): no rise
change in urinary uric acid/creatinine (urinary uric acid; [5]): significantly increased
serum uric acid value increase due to inosine in the presence of febuxostat (serum uric acid; 1 g/day inosine in the presence of 40 mg/day of febuxostat (Group C versus Group A)): 0.3 mg/dL
serum uric acid value increase due to inosine in the presence of febuxostat (serum uric acid; 2 g/day inosine in the presence of 40 mg/day of febuxostat (Group D versus Group A)): 1.06 mg/dL
serum uric acid value raised by, on average (serum uric acid; Phase II Group B: inosine 500 mg twice a day (1 g per day) for 14 days, without febuxostat): 2.57 mg/dL
serum uric acid value, highest observed (up to) (serum uric acid; Phase II Group B: inosine 500 mg twice a day for 14 days): up to 8.1 mg/dL

From patent publication US10881662B2, “Intracellular ATP enhancer” (StaGen Co., Ltd., priority 2016, dated 2021)
